Measurements reported in US20250177352A1, “COMBINATION TREATMENT FOR CANCER” (LAEKNA LIMITED, priority 2022, published 2025).

How the values were obtained:
[1] = tested on: solid tumors; settings: literature values of approved antibodies; cited from earlier work
[2] = tested on: mTNBC; settings: historical control for mTNBC patients with PD-L1 negative status; cited from earlier work
[3] = tested on: MBT-2 cells; test: Proliferation assay of mouse cancer cell lines (CellTiter-Lumi, ATP); format: cell-based; settings: afuresertib 0.0001-10 μM, 3 days, FIG. 1
Method: The cell lines were obtained from Cobioer Biosciences Co. Ltd., Nanjing, China. 1,000 to 2,000 cells were seeded into 96-well plate, and induced with various concentrations of afuresertib (0.0001-10 μM) for 3 days at 37° C. with 5% CO2. The number of viable cells in culture was determined based on quantitation of the amount of ATP following the manufacturer's instructions (CellTiter-Lumi Kit, Beyotime).

[4] = tested on: Akt (protein kinase B); settings: reversible, ATP-competitive; stated as known; cited from earlier work

Molecule	ORR, Phase I studies in solid tumors [1] [%]	other results
Atezolizumab: anti-PD-L1 antibody (Genentech/Roche)	10	–
Avelumab: anti-PD-L1 antibody (Merck Serono and Pfizer)	9	–
CC(=O)O[C@H]1C(=O)[C@@]2(C)[C@H]([C@H](OC(=O)c3ccccc3)[C@]3(O)C[C@H](OC(=O)[C@H](O)[C@@H](NC(=O)c4ccccc4)c4ccccc4)C(C)=C1C3(C)C)[C@]1(OC(C)=O)CO[C@@H]1C[C@@H]2O [paclitaxel, [(1S,2S,3R,4S,7R,9S,10S,12R,15S)-4,12-diacetyloxy-15-[(2R,3S)-3-benzamido-2-hydroxy-3-phenylpropanoyl]oxy-1,9-dihydroxy-10,14,17,17-tetramethyl-11-oxo-6-oxatetracyclo[11.3.1.0^3,10.0^4-7]heptadec-13-en-2-yl]benzoate]	–	ORR, paclitaxel monotherapy, LOTUS Study [2]: 32%
Cn1ncc(Cl)c1-c1cc(C(=O)N[C@H](CN)Cc2cccc(F)c2)sc1Cl [Afuresertib, N-{(1S)-2-amino-1-[(3-fluorophenyl)methyl]ethyl}-5-chloro-4-(4-chloro-1-methyl-1H-pyrazol-5-yl)-2-thiophenecarboxamide]	–	response of cell proliferation (cell viability) [3]: favorable response profile; pan-AKT kinase inhibitor potency [4]: low-nanomolar
Pembrolizumab: listed among other approved anti-PD-L1 antibodies from Phase I studies	5.3	–
